{"source": "a melting point compilation (Tetko et al.; mined from patent text by program, amines drawn as free bases though some values may be those of a salt)"}
{"units": {"melting point": "°C"}}
{"smiles": "COC(=O)C#CC(=O)c1ccc2c(c1)OCO2", "melting point": "95 to 97"}
{"smiles": "CCOC(=O)C(C)(C)NC(=O)c1nnc2ccc(Cl)nn12", "melting point": "132 to 133"}
{"smiles": "O=C(Nc1ccn[nH]1)c1cccnc1Cl", "melting point": 163}
{"smiles": "CSC(=NCCN(C)C)NC#N", "melting point": "94 to 95"}
{"smiles": "CCOC(=O)COc1cc2cc(C(O)CC)sc2c(Cl)c1Cl", "note": "(stereo not given)", "melting point": "69 to 70"}
{"smiles": "COc1ccc(Cc2sc3ccccc3c2-c2ccc(-c3ccc(OC(Cc4ccccc4)C(=O)O)cc3)cc2)cc1OC", "note": "(stereo not given)", "melting point": "59 to 61"}
{"smiles": "Cc1nnc(-c2nn(-c3cccc(C(F)(F)F)c3)ccc2=O)n1-c1ccccc1", "melting point": "191 to 192"}
{"smiles": "O=C(Nc1ccc(-n2nc(C(F)(F)F)cc2C(F)(F)F)cc1)Nc1ccc(Cl)cc1[N+](=O)[O-]", "melting point": "225 to 227"}
{"smiles": "CN1C(=O)C(c2cccc(OCc3ccccc3)c2)(c2cnn(CC(F)(F)F)c2)N=C1N", "note": "(stereo not given)", "melting point": "85 to 87"}
{"smiles": "CC(C(=O)O)c1ccc2c(c1)C(=O)CC(C(C)C)O2", "note": "(stereo not given)", "melting point": "94 to 95"}
{"smiles": "CON=CNC(=O)c1ccc(C2=NOC(c3cc(Cl)cc(Cl)c3)(C(F)(F)F)C2)cc1C(C)(C)N", "note": "(stereo not given)", "melting point": "144 to 146"}
{"smiles": "Cc1cc(O)n2nc(SCc3ccccc3)nc2c1", "melting point": "214 to 216"}
{"smiles": "CCN1C(=O)C2Cc3c([nH]c4ccccc34)C(c3ccc(N(C)C)cc3)N2C1=O", "note": "(stereo not given)", "melting point": "262 to 265"}
{"smiles": "COC(=O)c1[nH]c2c(C)ccc(C)c2c1-c1nc2ccccc2s1", "melting point": "193 to 194"}
{"smiles": "O=C(C=Cc1ccc2ccccc2c1)c1cnc2sc3c(n12)CCCCC3", "melting point": "185 to 188"}
{"smiles": "CN(C)S(=O)(=O)C(Br)(Br)Sc1ccccc1", "melting point": "128 to 129"}
{"smiles": "COc1cccc(N(C)C(=S)Oc2ccc3ccccc3c2)n1", "melting point": "95.5 to 97"}
{"smiles": "CC(=O)N=C(OC(C)=O)N1CCSC1c1ccccc1OCCN1CCN(c2ccccc2)CC1", "note": "(stereo not given)", "melting point": "120 to 124"}
{"smiles": "COc1ccc2[nH]c3c(c2c1)C1C(=O)OC(=O)C1C(c1ccccc1Cl)C3", "note": "(stereo not given)", "melting point": "189 to 191"}
{"smiles": "CN(C)CCOc1ccc2[nH]c(C(=O)N3CC(CCl)c4c3cc([N+](=O)[O-])c3cc([N+](=O)[O-])ccc43)cc2c1", "note": "(stereo not given)", "melting point": "263 to 264"}
{"smiles": "COc1cccc(-c2cc(NC(=O)CC(=O)C(F)(F)F)[nH]n2)c1", "melting point": "107 to 110"}
{"smiles": "O=C(O)CN(CCN(CC(=O)O)C(COCc1ccccc1)C(=O)O)C(COCc1ccccc1)C(=O)O", "note": "(stereo not given)", "melting point": 177}
{"smiles": "COc1cccc(N2C(=O)C3(CCCCO3)C(=O)c3cccnc32)c1", "note": "(stereo not given)", "melting point": "233 to 236"}
{"smiles": "CCOc1cc2c(cc1Cc1ccc3c(c1)OCO3)OCO2", "melting point": 44}
{"smiles": "COc1cc(Nc2nccc(-c3ccc(N4CCNCC4)nc3)n2)cc(OC)c1", "melting point": "176 to 177"}
{"smiles": "Cc1c2c3c(nc(N)c2nn1C)CCCC3", "melting point": "258 to 259"}
{"smiles": "COP1(=S)OCc2cc(C)cnc2O1", "note": "(stereo not given)", "melting point": "74 to 75"}
{"smiles": "C=CCOc1cc(CC(C#N)=CNc2ccccc2)cc(OCC=C)c1NC(C)=O", "melting point": "176 to 178"}
{"smiles": "O=C(NCC(F)(F)F)C1c2cc(F)ccc2-c2c(CCCCN3CCC(N4C(=O)c5ccccc5C4=O)CC3)cc(F)cc21", "note": "(stereo not given)", "melting point": "186 to 188"}
{"smiles": "CC(=NNC(N)=O)c1ccc2nnn(Cc3ccc4ncccc4c3)c2n1", "melting point": "249 to 250"}
{"smiles": "CCOC(=O)COC(=O)Cc1ccc2cc(OC)ccc2c1", "melting point": "38 to 40"}
{"smiles": "Cc1ccc2c(NN)ccnc2c1NC(=O)c1c(Cl)cccc1Cl", "melting point": "202 to 204"}
{"smiles": "CS(=O)(=O)N(Cc1cccnc1)Cc1ccc(Cl)cc1Cl", "melting point": "78 to 80"}
{"smiles": "CN1CC=C(c2c[nH]c3ccc(Sc4ccccc4)cc23)CC1", "melting point": "225 to 228"}
{"smiles": "O=C1NC(c2cccs2)=C2C(=O)NC(c3cccs3)=C12", "melting point": "> 400"}
{"smiles": "CC1(C)Oc2c(ccc3ccccc23)C2OC21", "note": "(stereo not given)", "melting point": "120 to 121"}
{"smiles": "NC(=O)N1CCN(c2n[nH]c3ccccc23)CC1", "melting point": "158 to 160"}
{"smiles": "CSCC1COCc2nc3c(N)nc4ccccc4c3n21", "note": "(stereo not given)", "melting point": "105 to 108"}
{"smiles": "O=c1c2c(Cc3ccccc3)n[nH]c2c2ccccc2n1-c1ccccc1", "melting point": "255 to 257"}
{"smiles": "CCCOc1ccccc1-c1nc2cc(SC)ccc2c(=O)[nH]1", "melting point": "156 to 158"}
{"smiles": "CNC(=O)c1cc(C)ccc1NC(=O)c1ccc(O)cc1", "melting point": "250 to 252"}
{"smiles": "Cc1ccc(CNCCOc2cccc3[nH]c(=O)[nH]c23)cc1", "melting point": "162 to 163"}
{"smiles": "CC(C)(C)OC(=O)c1ccc[nH]1", "melting point": "87 to 89"}
{"smiles": "CS(=O)(=O)Nc1ccc([C@@H]2CCC(=O)O2)cc1", "melting point": "101 to 102"}
{"smiles": "COc1ccc2c(c1)C13CCCOC1(C)C(C2)N(C#N)CC3", "note": "(stereo not given)", "melting point": "157 to 158"}
{"smiles": "CCCC(CCC)n1c(CC)nc2c1c(=O)n(C)c(=O)n2-c1c(OC)ccnc1C", "melting point": "124 to 126"}
{"smiles": "CCc1nn(CCNS(=O)(=O)c2cn(C)cn2)c(CC)c1Cc1cc(Cl)cc(Cl)c1", "melting point": "172 to 174"}
{"smiles": "CC1=NN(C)c2nc(C)c(CCN3CCN(c4n[nH]c5ccccc45)CC3)c(=O)n2C1", "melting point": 199}
{"smiles": "OCC(CC(F)(F)F)Nc1nc(-c2ccc(Br)cc2)cs1", "note": "(stereo not given)", "melting point": "120 to 121"}
{"smiles": "CC(=O)Nc1c(Cl)cc(CC(=O)O)cc1Cl", "melting point": "209 to 211"}
{"smiles": "CCC(=O)OCOC(=O)Nc1ccc(Cl)cc1", "melting point": "90 to 91"}
{"smiles": "CC(=O)c1ccc(OC2SCC(O)C(O)C2O)cn1", "note": "(stereo not given)", "melting point": "178 to 179"}
{"smiles": "O=C(OCc1ccccc1)C(C(=O)OCc1ccccc1)n1cccc1C(=O)C(Cl)(Cl)Cl", "melting point": "74 to 76"}
{"smiles": "O=C1OCC(c2ccc(Cl)cc2)C1CSCc1ccccc1", "note": "(stereo not given)", "melting point": "66 to 69"}
{"smiles": "CC(=O)OC1CSC(Oc2cc(-c3cncnc3)cnc2F)C(OC(C)=O)C1OC(C)=O", "note": "(stereo not given)", "melting point": "96 to 97"}
{"smiles": "Cc1ccc(C(=O)NN=C(N)CS(=O)(=O)c2ccccc2)o1", "melting point": "219 to 220"}
{"smiles": "CSc1nn2c(=O)[nH]c(C)nc2c1S(=O)(=O)c1ccccc1", "melting point": "> 300"}
{"smiles": "C=COc1ccccc1S(=O)(=O)NC(=O)c1ccc(Cc2cn(C)c3ccc(NC(=O)OC4CCCC4)cc23)c(OC)c1", "melting point": "185 to 188"}
{"smiles": "CCc1c(OCc2ccc(Cl)cc2)cnn(C(C)(C)C)c1=O", "melting point": "86 to 88"}
{"smiles": "COc1ccc(-c2coc3cc(O)ccc3c2=O)c(O)c1", "melting point": "210 to 212"}
{"smiles": "CCCCCC(O)C#CCCCCCCC#Cc1ccc(O)c(O)c1", "note": "(stereo not given)", "melting point": "46 to 48"}
{"smiles": "CS(=O)(=O)C(CC(S(C)(=O)=O)S(C)(=O)=O)S(C)(=O)=O", "melting point": "278 to 280"}
{"smiles": "NNc1nc(C(F)(F)F)nc(-c2ccc(F)cc2)c1-c1ccccc1", "melting point": "175 to 177"}
{"smiles": "CCC(CC)N1CCNc2c1cc(C)nc2Oc1c(C)cc(C)cc1C", "melting point": "138 to 140"}
{"smiles": "NC(=O)c1[nH]c2cccnc2c1Sc1ccccc1", "melting point": 251}
{"smiles": "Nc1cccc(CN2CCC(OC(=O)c3ccccc3)CC2)c1", "melting point": "95 to 97"}
{"smiles": "FC(F)(F)CSc1nc2ccccc2[nH]1", "melting point": "148 to 150"}
{"smiles": "CC(C)CCN1C(=O)C2(COc3cc(O)ccc32)c2ccccc21", "note": "(stereo not given)", "melting point": "101 to 103"}
{"smiles": "COc1ccc(CNc2cc(C(N)=O)c([N+](=O)[O-])cc2[N+](=O)[O-])cc1", "melting point": "201 to 203"}
{"smiles": "OCc1c(Cl)cc(Cl)cc1Br", "melting point": "111 to 112"}
{"smiles": "CCSC1CCC(=O)N1", "note": "(stereo not given)", "melting point": "65 to 68"}
{"smiles": "C#CC[C@@H](NCCCN1C(=O)c2ccccc2C1=O)c1nc2cc(Cl)ccc2c(=O)n1Nc1ccccc1", "melting point": "78 to 80"}
{"smiles": "O=C(CC(=S)N1CCC[C@H]1C(=O)O)c1ccccc1", "melting point": "151 to 152"}
{"smiles": "CCN(CC)CC1CCCCN1CCNC(=O)N1c2ccccc2C(=O)Nc2cccnc21", "note": "(stereo not given)", "melting point": "175 to 176"}
{"smiles": "ClC12CC3CC(CC(C3)C1=C1C3CC4CC(C3)CC1C4)C2", "melting point": "142 to 143"}
{"smiles": "Nc1cccc(S(=O)(=O)NC(=O)c2ccccc2)c1", "melting point": "160 to 162"}
{"smiles": "O=C(O)CCc1cccc(OCc2nc(-c3ccccc3)c(-c3ccccc3)o2)c1", "melting point": "118 to 120"}
{"smiles": "CCOC(=O)c1ccc(COCc2csc3nc(C(=O)NCc4cccc(SC)c4)[nH]c(=O)c23)cc1", "melting point": "207 to 209"}
{"smiles": "CC(C)C[C@@H](CO)NC(=O)[C@@H](NC(=O)c1ccc(C=O)o1)C(C)C", "melting point": "39 to 41"}
{"smiles": "c1ccc(C2CN3CCN=C3S2)cc1", "note": "(stereo not given)", "melting point": "68 to 70"}
{"smiles": "Cc1ccc(N)cc1Nc1ncc(-c2cccnc2)o1", "melting point": 166}
{"smiles": "O=C1CC(c2c(Cl)cccc2Cl)CN1", "note": "(stereo not given)", "melting point": "153 to 154"}
{"smiles": "CCC(C)(C)c1ccc(OCCCC(=O)Nc2ccc(Cl)c(NC(=O)CC(=O)C(C)(C)Sc3ccccc3)c2)c(C(C)(C)CC)c1", "melting point": "144 to 145"}
{"smiles": "CCOCC(=O)N1Cc2cc(Cl)ccc2CC(C)C1=O", "note": "(stereo not given)", "melting point": "123 to 124"}
{"smiles": "CC(C)(C)OC(=O)Nc1ccc(-c2ccc(S(=O)(=O)n3ccc(/C=C/C(=O)NOC4CCCCO4)c3)cc2)cn1", "note": "(stereo not given)", "melting point": "140 to 146"}
{"smiles": "COCOc1c(C)cc(-c2ccc(C(=O)NCCOc3ccc(CC(Oc4ccccc4)C(=O)O)cc3)cc2)cc1C", "note": "(stereo not given)", "melting point": "142 to 143"}
{"smiles": "COc1cc(OC)nc(C2(OC(C)=O)OC(=O)c3c(Cl)cccc32)n1", "note": "(stereo not given)", "melting point": "213 to 215"}
{"smiles": "CCCCc1nc2ccccc2n1Cc1ccc(-c2ccccc2C2SC(=O)NC2=O)cc1", "note": "(stereo not given)", "melting point": "162 to 163"}
{"smiles": "C=C(CC1(C)C(=O)CCC1=O)C1=CCCc2cc(OC)ccc21", "melting point": "81 to 82"}
{"smiles": "O=C(O)c1nc(-c2ccc(-c3ccccc3)cc2)nc2ccccc12", "melting point": "175 to 176"}
{"smiles": "C=CCOCc1csc2c(=O)c(C(=O)NCc3ccc(Cl)cc3)cn(C)c12", "melting point": "156 to 158"}
{"smiles": "BrCc1ccc(-c2nnn(C(c3ccccc3)(c3ccccc3)c3ccccc3)n2)cc1", "melting point": "165 to 172"}
{"smiles": "CC(=O)SCCC(=O)N1[C@@H](c2ccccc2O)SC[C@H]1C(=O)N(c1ccccc1)[C@@H](C)C(=O)O", "melting point": "91 to 95"}
{"smiles": "O=C1N[C@H](Cc2ccc(C(F)(F)F)cc2)[C@H](c2ccncc2)O1", "note": "(racemic)", "melting point": "212 to 213"}
{"smiles": "CCOC(=O)CC(=O)c1ccc(OCc2ccccc2)cc1C", "melting point": "59 to 60"}
{"smiles": "Nc1ncc(-c2ccc(F)cc2F)nc1C(=O)Nc1cccnc1", "melting point": "232 to 234"}
{"smiles": "CN1Cc2c(-c3noc(CN4CCCC4)n3)ncn2-c2ccc(F)cc2C1=O", "melting point": "158 to 160"}
{"smiles": "NC(=O)N1C(=O)Cc2cc(NC(=O)c3ccccc3)ccc21", "melting point": "223 to 226"}
{"smiles": "CCCCCCCCCCC=Cc1cnn(C(C(=O)Nc2c(OC)cc(OC)cc2OC)c2ccccc2)c1", "note": "(stereo not given)", "melting point": "82 to 85"}
{"smiles": "COc1ccc2c(c1)ncc1c(=O)n(-c3ccccc3)oc12", "melting point": 170}
